Data taken from patent publication US9540343B2 (Gilead Sciences, Inc., priority 2011, dated 2017).

Experiments:
[1] = test system: HIV-IIIb; test: Test A: Antiviral assay in MT4 cells; format: cell-based, HIV-1; conditions: Human immunodeficiency virus 1, IIIB, MT4, 120 h, read-out: % inhibition at 2 μM, percent inhibition of virus-induced cell killing, from dose response curve at 2 uM drug; MT-4 cells infected with HIV-IIIb, 5 days, CellTiter-Glo
[2] = in vitro
How it was run: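 Cytoprotection read-out: CellTiter-Glo chemiluminescence after 5 days at 37 °C of HIV-IIIb-infected MT-4 cells (m.o.i. 0.003) with compound in 10-point 3-fold dilutions, quadruplicate, 10% FBS. Cytotoxicity (CC50) measured identically without virus.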

[3] = human, uninfected MT-4 cells, CC50 (nM), same protocol as Test A, CellTiter-Glo

Which inhibition at 2 µM [1] does the source give for `Nc1ccc(-c2cccnc2[C@H](Cc2cc(F)cc(F)c2)NC(=O)Cn2nc(C(F)F)c3c2C(F)(F)CCC3(F)F)cn1` [Example 375, (S)—N-(1-(6′-amino-3,3′-bipyridin-2-yl)-2-(3,5-difluorophenyl)ethyl)-2-(3-(difluoromethyl)-4,4,7,7-tetrafluoro-4,5,6,7-tetrahydro-1H-indazol-1-yl)acetamide] here?
Its inhibition at 2 µM is 98%.

What about the CC50 at 5 days [2, 3] of the same compound?
Its CC50 at 5 days is 15200 nM.

With `NC(=O)c1cc(-c2cccnc2[C@H](Cc2cc(F)cc(F)c2)NC(=O)Cn2nc3c(c2C(F)(F)F)CNC3)ccc1F` [Example 200B, (S)-5-(2-(2-(3,5-difluorophenyl)-1-(2-(3-(trifluoromethyl)-5,6-dihydropyrrolo[3,4-c]pyrazol-2(4H)-yl)acetamido)ethyl)pyridin-3-yl)-2-fluorobenzamide] as the compound, how does the inhibition at 2 µM [1] read?
The inhibition at 2 µM was 0%.

And the CC50 at 5 days [2, 3]?
The CC50 at 5 days was greater than 53200 nM.

With `Cc1ccccc1-c1cccnc1[C@H](Cc1cccc(F)c1)NC(=O)Cn1nc(C(F)(F)F)c2c1CCCC2` [Example 25, (S)—N-(2-(3-fluorophenyl)-1-(3-o-tolylpyridin-2-yl)ethyl)-2-(3-(trifluoromethyl)-4,5,6,7-tetrahydro-1H-indazol-1-yl)acetamide] as the compound, how does the inhibition at 2 µM [1] read?
Its inhibition at 2 µM is 71%.

And the CC50 at 5 days [2, 3]?
Its CC50 at 5 days is 11900 nM.

With `NC(=O)c1cc(-c2cccnc2[C@H](Cc2cc(F)cc(F)c2)NC(=O)CC2C(=O)Nc3ccc(F)cc32)ccc1F` (stereo partly drawn) [Example 267, 5-(2-((1S)-2-(3,5-difluorophenyl)-1-(2-(5-fluoro-2-oxoindolin-3-yl)acetamido)ethyl)pyridin-3-yl)-2-fluorobenzamide] as the compound, how does the inhibition at 2 µM [1] read?
The inhibition at 2 µM was 5%.

And the CC50 at 5 days [2, 3]?
The CC50 at 5 days was greater than 52900 nM.

With `NC(=O)c1cc(-c2cccnc2[C@H](Cc2cc(F)cc(F)c2)NC(=O)Cn2nc3c(c2C(F)(F)F)CCC3)ccc1F` [Example 151E, (S)-5-(2-(2-(3,5-difluorophenyl)-1-(2-(3-(trifluoromethyl)-5,6-dihydrocyclopenta[c]pyrazol-2(4H)-yl)acetamido)ethyl)pyridin-3-yl)-2-fluorobenzamide] as the compound, how does the inhibition at 2 µM [1] read?
Its inhibition at 2 µM is 11%.

And the CC50 at 5 days [2, 3]?
The CC50 at 5 days was 20300 nM.

Which results are given for `NC(=O)c1cc(-c2cccnc2[C@H](Cc2cc(F)cc(F)c2)NC(=O)Cn2cc(C(F)(F)F)nc2CO)ccc1F` [Example 437, (S)-5-(2-(2-(3,5-difluorophenyl)-1-(2-(2-(hydroxymethyl)-4-(trifluoromethyl)-1H-imidazol-1-yl)acetamido)ethyl)pyridin-3-yl)-2-fluorobenzamide]?
inhibition at 2 µM [1]: 3%; CC50 at 5 days [2, 3]: > 53200 nM

What does the source list for `Cc1cc2c(ccn2CC(=O)N[C@@H](Cc2cc(F)cc(F)c2)c2ncccc2-c2ccc(F)c(C(N)=O)c2)cn1` [Example 522, (S)-5-(2-(2-(3,5-difluorophenyl)-1-(2-(6-methyl-1H-pyrrolo[3,2-c]pyridin-1-yl)acetamido)ethyl)pyridin-3-yl)-2-fluorobenzamide]?
inhibition at 2 µM [1]: 4%; CC50 at 5 days [2, 3]: 47900 nM

Which inhibition at 2 µM [1] does the source give for `N#Cc1nn(CC(=O)N[C@@H](Cc2cc(F)cc(F)c2)c2ncccc2-c2ccc(F)c(C(N)=O)c2)c2c1C1CC1C2(F)F` (stereo partly drawn) [Example 254, 5-(2-((1S)-1-(2-(3-cyano-5,5-difluoro-3b,4,4a,5-tetrahydro-1H-cyclopropa[3,4]cyclopenta[1,2-c]pyrazol-1-yl)acetamido)-2-(3,5-difluorophenyl)ethyl)pyridin-3-yl)-2-fluorobenzamide] here?
The inhibition at 2 µM was 91%.

What about the CC50 at 5 days [2, 3] of the same compound?
The CC50 at 5 days was 16600 nM.

For `CC(C)c1cc(C(=O)NC2CC2)n(CC(=O)N[C@@H](Cc2cc(F)cc(F)c2)c2ncccc2-c2ccc(F)c(C(N)=O)c2)n1` [Example 520, (S)-1-(2-(1-(3-(3-carbamoyl-4-fluorophenyl)pyridin-2-yl)-2-(3,5-difluorophenyl)ethylamino)-2-oxoethyl)-N-cyclopropyl-3-isopropyl-1H-pyrazole-5-carboxamide], which inhibition at 2 µM [1] is on record?
The inhibition at 2 µM was 30%.

And the CC50 at 5 days [2, 3]?
The CC50 at 5 days was greater than 53200 nM.

With `Cc1cc(=O)n(CC(=O)N[C@@H](Cc2cc(F)cc(F)c2)c2ncccc2-c2ccnc(C(N)=O)c2)c2ccccc12` [Example 362, (S)-2-(2-(3,5-difluorophenyl)-1-(2-(4-methyl-2-oxoquinolin-1(2H)-yl)acetamido)ethyl)-3,4′-bipyridine-2′-carboxamide] as the compound, how does the inhibition at 2 µM [1] read?
Its inhibition at 2 µM is 23%.

What about the CC50 at 5 days [2, 3] of the same compound?
The CC50 at 5 days was greater than 53000 nM.

For `Cc1nc2n(CC(=O)N[C@@H](Cc3cc(F)cc(F)c3)c3ncccc3-c3ccc(F)c(C(N)=O)c3)c3ccccc3n2n1` [Example 600, (S)-5-(2-(2-(3,5-difluorophenyl)-1-(2-(2-methyl-4H-benzo[4,5]imidazo[1,2-b][1,2,4]triazol-4-yl)acetamido)ethyl)pyridin-3-yl)-2-fluorobenzamide], which inhibition at 2 µM [1] is on record?
Its inhibition at 2 µM is 9%.

And the CC50 at 5 days [2, 3]?
Its CC50 at 5 days is greater than 53200 nM.

For `O=C(Cn1nc(C(F)(F)F)c2c1COCC2)N[C@@H](Cc1cc(F)cc(F)c1)c1ncccc1-c1ccc(Cl)cc1` [Example 121, (S)—N-(1-(3-(4-chlorophenyl)pyridin-2-yl)-2-(3,5-difluorophenyl)ethyl)-2-(3-(trifluoromethyl)-4,5-dihydropyrano[3,4-c]pyrazol-1(7H)-yl)acetamide], which inhibition at 2 µM [1] is on record?
The inhibition at 2 µM was 68%.

What about the CC50 at 5 days [2, 3] of the same compound?
Its CC50 at 5 days is 9100 nM.

Which inhibition at 2 µM [1] does the source give for `CS(=O)(=O)c1ccc(-c2cccnc2[C@H](Cc2cc(F)cc(F)c2)NC(=O)Cc2c[nH]c3ccc(F)cc23)cc1` [Example 413, (S)—N-(2-(3,5-difluorophenyl)-1-(3-(4-(methylsulfonyl)phenyl)pyridin-2-yl)ethyl)-2-(5-fluoro-1H-indol-3-yl)acetamide] here?
The inhibition at 2 µM was 61%.

And the CC50 at 5 days [2, 3]?
Its CC50 at 5 days is 14500 nM.

Which results are given for `NC(=O)c1cc(-c2cccnc2[C@H](Cc2cc(F)cc(F)c2)NC(=O)Cn2nc(C(F)(F)F)c3c2C2CC2CC3)ccc1F` (stereo partly drawn) [Example 342C, 5-(2-((1S)-2-(3,5-difluorophenyl)-1-(2-(3-(trifluoromethyl)-5,5a,6,6a-tetrahydrocyclopropa[g]indazol-1(4H)-yl)acetamido)ethyl)pyridin-3-yl)-2-fluorobenzamide]?
inhibition at 2 µM [1]: 119%; CC50 at 5 days [2, 3]: 13700 nM

With `CC(C)(CC(=O)N[C@@H](Cc1cc(F)cc(F)c1)c1ncccc1-c1ccc(F)c(C(N)=O)c1)n1ccc(C(F)(F)F)n1` (single isomer, unassigned) [Example 478E] as the compound, how does the inhibition at 2 µM [1] read?
Its inhibition at 2 µM is 0%.

What about the CC50 at 5 days ([2]; human, CC50 (nM), uninfected MT-4 cells, same protocol as Test A, CellTiter-Glo) of the same compound?
The CC50 at 5 days was 21500 nM.

Which results are given for `O=C(Cc1c[nH]c2ccc(F)cc12)N[C@@H](Cc1cc(F)cc(F)c1)c1ncccc1-c1cccc(OC(F)(F)F)c1` [Example 67, (S)—N-(2-(3,5-difluorophenyl)-1-(3-(3-(trifluoromethoxy)phenyl)pyridin-2-yl)ethyl)-2-(5-fluoro-1H-indol-3-yl)acetamide]?
inhibition at 2 µM [1]: 0%; CC50 at 5 days [2, 3]: 6460 nM

Which inhibition at 2 µM [1] does the source give for `Cc1nnc(-c2cccc(-c3cccnc3[C@H](Cc3cc(F)cc(F)c3)NC(=O)Cc3c[nH]c4ccc(F)cc34)c2)o1` [Example 99, (S)—N-(2-(3,5-difluorophenyl)-1-(3-(3-(5-methyl-1,3,4-oxadiazol-2-yl)phenyl)pyridin-2-yl)ethyl)-2-(5-fluoro-1H-indol-3-yl)acetamide] here?
The inhibition at 2 µM was 0%.

What about the CC50 at 5 days [2, 3] of the same compound?
The CC50 at 5 days was greater than 53200 nM.

Which inhibition at 2 µM [1] does the source give for `NC(=O)c1cc(-c2cccnc2[C@H](Cc2cc(F)cc(F)c2)NC(=O)Cn2nc(C(F)(F)F)c3c2C2CC2CC3(F)F)ccc1F` (stereo partly drawn) [Example 364, 5-(2-((1S)-1-(2-(4,4-difluoro-3-(trifluoromethyl)-5,5a,6,6a-tetrahydrocyclopropa[g]indazol-1(4H)-yl)acetamido)-2-(3,5-difluorophenyl)ethyl)pyridin-3-yl)-2-fluorobenzamide] here?
The inhibition at 2 µM was 38%.

And the CC50 at 5 days [2, 3]?
The CC50 at 5 days was 3760 nM.

With `NC(=O)c1cc(-c2cccnc2[C@H](Cc2cc(F)cc(F)c2)NC(=O)Cn2nc(C(F)F)c3c2C(=O)C2CC32)ccc1F` (stereo partly drawn) [Example 233B, 5-(2-((1S)-1-(2-(3-(difluoromethyl)-5-oxo-3b,4,4a,5-tetrahydro-1H-cyclopropa[3,4]cyclopenta[1,2-c]pyrazol-1-yl)acetamido)-2-(3,5-difluorophenyl)ethyl)pyridin-3-yl)-2-fluorobenzamide] as the compound, how does the inhibition at 2 µM [1] read?
Its inhibition at 2 µM is 5%.

What about the CC50 at 5 days [2, 3] of the same compound?
Its CC50 at 5 days is 32200 nM.

What does the source list for `COc1ccc(-c2cccnc2[C@H](Cc2ccccc2)NC(=O)Cn2nc(C(F)(F)F)c3c2CCCC3)c(C)c1` [Example 19, (S)—N-(1-(3-(4-methoxy-2-methylphenyl)pyridin-2-yl)-2-phenylethyl)-2-(3-(trifluoromethyl)-4,5,6,7-tetrahydro-1H-indazol-1-yl)acetamide]?
inhibition at 2 µM [1]: 25%; CC50 at 5 days [2, 3]: 14200 nM

Which results are given for `NC(=O)c1cc(-c2cccnc2[C@H](Cc2cc(F)cc(F)c2)NC(=O)Cn2cc(C(F)(F)F)nc2C2CCCC2)ccc1F` [Example 107E, (S)-5-(2-(1-(2-(2-cyclopentyl-4-(trifluoromethyl)-1H-imidazol-1-yl)acetamido)-2-(3,5-difluorophenyl)ethyl)pyridin-3-yl)-2-fluorobenzamide]?
inhibition at 2 µM [1]: 30%; CC50 at 5 days [2, 3]: 42800 nM

Which inhibition at 2 µM [1] does the source give for `COC(=O)Nc1ccc(-c2cccnc2[C@H](Cc2cc(F)cc(F)c2)NC(=O)Cn2nc(C(F)F)c3c2C(F)(F)C2CC32)cc1` (stereo partly drawn) [Example 68B, (S)-methyl 4-(2-(1-(3-(difluoromethyl)-5,6-dihydro-4,5-(methano)-6,6-difluoro-cyclopenta[c]pyrazol-1(4H)-ylacetamido)-2-(3,5-difluorophenyl)ethyl)pyridin-3-yl)phenylcarbamate] here?
Its inhibition at 2 µM is 28%.

What about the CC50 at 5 days [2, 3] of the same compound?
The CC50 at 5 days was greater than 53200 nM.

What does the source list for `NC(=O)c1cc(-c2cccnc2[C@H](Cc2cc(F)cc(F)c2)NC(=O)Cn2nc(C(F)(F)F)c3c2C(=O)CCC3(F)F)ccc1F` [Example 414]?
inhibition at 2 µM [1]: 39%; CC50 at 5 days [2, 3]: 23400 nM

Which inhibition at 2 µM [1] does the source give for `NC(=O)c1cc(-c2cccnc2[C@H](Cc2cc(F)cc(F)c2)NC(=O)Cn2cc(C(N)=O)c(C(F)(F)F)n2)ccc1F` [Example 312, (S)-1-(2-(1-(3-(3-carbamoyl-4-fluorophenyl)pyridin-2-yl)-2-(3,5-difluorophenyl)ethylamino)-2-oxoethyl)-3-(trifluoromethyl)-1H-pyrazole-4-carboxamide] here?
Its inhibition at 2 µM is 2%.

What about the CC50 at 5 days [2, 3] of the same compound?
The CC50 at 5 days was greater than 53200 nM.
